{"source": "paper PMC11359197", "about": "(Viruses, 2024)"}
{"target": "released M^pro-GST (Severe acute respiratory syndrome coronavirus 2, UniProt P0DTD1, Q3569E)", "format": "cell-based, SARS-CoV-2"}
{"compound": "CC(C)C[C@H](NC(=O)[C@H]1O[C@@H]1C(=O)O)C(=O)NCCCCN=C(N)N", "note": "[E-64]", "GFP signal (GFP degradation by the released M^pro-GST)": "background levels"}
{"compound": "CC(C)[C@H](O)C(=O)N[C@@H](C)C(=O)N[C@@H]1C(=O)N(C)CCc2ccccc21", "note": "[LY450139]", "GFP signal versus DMSO controls, pilot screen": "higher GFP signals"}
{"compound": "CC(NC(=O)[C@H](Cc1ccccc1)NC(=O)OCc1ccccc1)C(=O)CF", "note": "(some centres unmarked) [Z-FA-FMK]", "GFP signal (GFP degradation by the released M^pro-GST)": "consistently suppressed the GFP degradation", "GFP signal versus DMSO controls, pilot screen": "higher GFP signals"}
{"compound": "COC(=O)N[C@H](C(=O)N[C@@H](Cc1ccccc1)[C@@H](O)CN(Cc1ccc(-c2ccccn2)cc1)NC(=O)[C@@H](NC(=O)OC)C(C)(C)C)C(C)(C)C", "note": "[atazanavir]", "GFP signal (GFP degradation by the released M^pro-GST)": "background levels"}
{"compound": "CC(C)(C)NC(=O)N[C@H](C(=O)N1C[C@H]2[C@@H]([C@H]1C(=O)NC(CC1CCC1)C(=O)C(N)=O)C2(C)C)C(C)(C)C", "note": "(some centres unmarked) [boceprevir, Boceprevir]", "GFP signal (GFP degradation by the released M^pro-GST)": "consistently suppressed the GFP degradation", "GFP signal versus DMSO controls, pilot screen": "higher GFP signals"}
{"compound": "Cc1cccc(C)c1OCC(=O)N[C@@H](Cc1ccccc1)[C@@H](O)C[C@H](Cc1ccccc1)NC(=O)[C@H](C(C)C)N1CCCNC1=O", "note": "[lopinavir]", "GFP signal (GFP degradation by the released M^pro-GST)": "background levels"}
